# Laboratory results: patent US5215520A, “Method for delivering an active substance topically or percutaneously” (Centre Internationale de Recherches Dermatologiques …, priority 1991, dated 1993)
# How the values were obtained:
# [1] = Pharmacokinetic profile: blood and urine levels after single intravenous injection; format: in vivo, hairless female rats
# Protocol: Prior to the in vivo experiments, a study was carried out to determine whether the levels of peptide in urine were significant. To this end, following a single intravenous injection of Thr-Lys-Pro, its levels in blood and urine were measured. This was carried out by an injection of 0.5 cm^3 of an aqueous solution containing 2 nmol/cm^3 of non-radiolabelled peptide and 5 μCi/cm^3 of radiolabelled peptide via the tail vein of five hairless female rats (198±12 g). The rats had been anaesthetised by an intraperitoneal injection of pentobarbital sodium (40 mg/kg). The rats were left in metabolic cages and blood samples were taken at 10, 15, 30 minutes and 1, 2, 3 and 24 hours following the peptide injection. Blood was removed from the retro-orbital sinus of the eye socket by capillary tube. The samples were weighed into a crucible (ashless paper) and allowed to dry overnight. The blood was then oxidized using a tri-carb oxidizer (model 306 sold by Packard Instrument Co. Inc.) and measured for radioactivity. Urine was collected from the cage after 24 hours and also measured for radioactivity.
# [2] = rat, in vivo
# Protocol: In these experiments, the levels of Thr-Lys-Pro peptide in urine following application of the peptide to the skin were measured.
# Electrodes (105, 106) (Ag/AgC1) were tightly fitted to the stoppers (103, 104) and became enclosed within the chambers (101 and 102) when the chambers were closed by replacing the stoppers. The distance between the bottom of the electrode after the stopper has been replaced and the bottom of the chamber is 0.3 cm. The skin surface contact area was 3.80 cm^2 and the axes of the chambers were 42 mm apart. The electrodes were connected to a source of electric current (E). To enable the various experiments to be performed, chambers (101 and 102) were fixed to the skin (S) using a cyanoacrylate glue. […]
# After 3 hours the electrodes were removed and the skin washed carefully with deionized water, then dried and stripped 5 times with adhesive tape (3M Co., St. Paul, Minn., U.S.A) and the strips discarded. […] The urine passed in the 24-hour period was collected and counted for radioactivity.
# In the method of the invention, the skin was first subjected to 3 hours of electric current as in conventional iontophoresis, except that chamber 101 contained the gel of example 1 without peptide. […] The rats were then left as described previously in their metabolic cages for 24 hours and urine collected and measured for radioactivity. […]
substance,measurement,setting,value
Thr-Lys-Pro,quantity of peptide present in urine,"[1]; 24 hours after the intravenous injection, radioactivity",63.6±8 % of the injected dose
same,quantity of peptide in the blood,"[1]; single intravenous injection, blood sampled 10 minutes to 24 hours",not detectable
same,systemic absorption of peptide (total quantity in urine) vs passive method without current,[2],greater systemic absorption of peptides than the passive method without application of current
